Data from patent US6353006B1, “Substituted 2-arylimino heterocycles and compositions containing them, for use as progesterone receptor binding agents” (Bayer Corporation, priority 1999, dated 2002).

SMILES	melting point [°C]
CCc1cc(C(=O)O)ccc1N=C1SCC2(CCCC2)N1C1CCCC1 [Entry 253, 2-(4-carboxy-2-ethylphenylimino)-1-cyclopentyl-3-thia-1-azaspiro[4.4]nonane]	208 to 209
CCc1cc(C(C)=O)ccc1N=C1SCC2(CCCC2)N1C1CCCC1 [Entry 255, 2-(4-acetyl-2-ethylphenylimino)-1-cyclopentyl-3-thia-1-azaspiro[4.4]nonane]	114 to 115
CCc1cc(/C=C/[N+](=O)[O-])ccc1N=C1SCC2(CCCC2)N1C1CCCC1 [Entry 269, 2-(2-ethyl-4-((1E)-2-nitrovinyl)phenylimino)-1-cyclopentyl-3-thia-1-azaspiro[4.4]nonane]	141 to 142
CCc1cc(C=C(C#N)C#N)ccc1N=C1SCC2(CCCC2)N1C1CCCC1 [Entry 271, 2-(2-ethyl-4-(2,2-dicyanovinyl)phenylimino)-1-cyclopentyl-3-thia-1-azaspiro[4.4]nonane]	135 to 136

Now from value to molecule:

melting point [°C]	SMILES
152	Cc1cc([N+](=O)[O-])ccc1N=C1SC(=O)CN1CC(C)C [Entry 310, 2-(2-methyl-4-nitrophenylimino)-3-isobutyl-1,3-thiazolidin-5-one]
112 to 114	CCc1cc(C#N)ccc1N=C1OCC(C)(C)N1C1CCCC1 [Entry 319, 2-(4-cyano-2-ethylphenylimino)-3-cyclopentyl-4,4-dimethyl-1,3-oxazolidine]
